The subject of the data set is rodent carcinogenicity bioassays, tumor incidence. As to the kind of experiment: CCRIS carcinogenicity studies. In outline:
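NCI-built, expert-reviewed records of carcinogenicity and related test outcomes (mutagenicity, tumor promotion/inhibition) compiled from published and report sources, historical span 1985-2011, not updated.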

Setting [1] is: Species: RAT, Strain/Sex: F344/FEMALE, Route: ORAL, Dose: 0, 300, 600 PPM IN DIET, Dose: 0, 300, 600 PPM IN DIET.

The source made the active and inactive calls. No rule for the calls is given here.

Consider `S=C=NCCc1ccccc1`, for which the carcinogen call is “inactive; negative (bladder hyperplasias observed)” (Species: RAT, Strain/Sex: F344/MALE, Route: DIET (ORAL), Dose: 0.1% FOR 12 WK (STUDY DURATION: 48 WK)); “inactive; negative (bladder hyperplasias observed)” (Species: RAT, Strain/Sex: F344/MALE, Route: DIET (ORAL), Dose: 0.1% FOR 24 WK (STUDY DURATION: 48 WK)); “inactive; negative (bladder hyperplasias and dysplasias observed)” (Species: RAT, Strain/Sex: F344/MALE, Route: DIET (ORAL), Dose: 0.1% FOR 48 WK (STUDY DURATION: 48 WK)); “active; positive” (Species: RAT, Strain/Sex: F344/MALE, Route: ORAL, Dose: 0.1% IN DIET FOR 32 WK, THEN SWITCHED TO BASAL DIET FOR 16 WK (STUDY DURATION: 48 WK), Tumor Site: Type of Lesion: URINARY BLADDER: CARCINOMA); “active; positive” (Species: RAT, Strain/Sex: F344/MALE, Route: ORAL, Dose: 0.1% IN DIET FOR 48 WK (STUDY DURATION: 48 WK), Tumor Site: Type of Lesion: URINARY BLADDER: CARCINOMA).
In the case of `CCN(CC)C(=S)SSC(=S)N(CC)CC`, the carcinogen call was “inactive; negative” (Species: MOUSE, Strain/Sex: B6C3F1/FEMALE, Route: ORAL, Dose: 0, 100, 500 PPM IN DIET, Dose: 0, 100, 500 PPM IN DIET); “inactive; negative” (Species: MOUSE, Strain/Sex: B6C3F1/MALE, Route: ORAL, Dose: 0, 500, 2000 PPM IN DIET, Dose: 0, 500, 2000 PPM IN DIET); “inactive; negative” under setting [1]; “inactive; negative” (Species: RAT, Strain/Sex: F344/MALE, Route: ORAL, Dose: 0, 300, 600 PPM IN DIET, Dose: 0, 300, 600 PPM IN DIET).
Take `O=[N+]([O-])c1ccc2ccc3c([N+](=O)[O-])ccc4ccc1c2c43`: the carcinogen call reads like this: (Species: HAMSTER, Strain/Sex: SYRIAN/FEMALE, Route: INTRATRACHEAL, Dose: 0, 0.5 MG IN 0.2 ML OF SALINE 1/WK FOR 26 WK (STUDY DURATION: 48 WK), Tumor Site: Type of Lesion: LUNG: ADENOCARCINOMA, HEMATOPOIETIC SYSTEM: LEUKEMIA) “active; positive”; (Species: HAMSTER, Strain/Sex: SYRIAN/MALE, Route: INTRAPERITONEAL, Dose: 0, 0.5 MG IN 0.2 ML OF SALINE 1/WK FOR 26 WK (STUDY DURATION: 48 WK), Tumor Site: Type of Lesion: LUNG: ADENOCARCINOMA, HEMATOPOIETIC SYSTEM: LEUKEMIA) “active; positive”; (Species: MOUSE, Strain/Sex: BALB/MALE, Route: SUBCUTANEOUS, Dose: 0, 0.1 MG IN DMSO 1/WK FOR 20 WK (STUDY DURATION: 60 WK), Tumor Site: Type of Lesion: INJECTION SITE: TUMOR) “active; positive”; (Species: RAT, Strain/Sex: F344/MALE, Route: SUBCUTANEOUS, Dose: 0, 0.2 MG 2/WK FOR 10 WK (STUDY DURATION: 320 D), Tumor Site: Type of Lesion: INJECTION SITE: SARCOMA) “active; positive”; (Species: RAT, Strain/Sex: F344/NS1C/MALE, Route: PULMONARY IMPLANT, Dose: 0, 0.003, 0.01, 0.03, 0.1, 0.15 MG AS A SUSPENSION IN EQUAL VOL OF BEESWAX AND TRICAPRYLIN IMPLANTED IN LEFT LUNG (STUDY, Dose: 0, 0.003, 0.01, 0.03, 0.1, 0.15 MG AS A SUSPENSION IN EQUAL VOL OF BEESWAX AND TRICAPRYLIN IMPLANTED IN LEFT LUNG (STUDY, Tumor Site: Type of Lesion: LUNG: TUMOR) “active; positive”; (Species: RAT, Strain/Sex: STRAIN CD/FEMALE, Route: INTRAGASTRIC, Dose: 0, 10 UMOL IN DMSO 3/WK FOR 4 WK (TOTAL DOSE: 16 UMOL/RAT) (STUDY DURATION: 78 WK), Tumor Site: Type of Lesion: PITUITARY GLAND: CARCINOMA) “active; positive”. Also, the carcinogen call is, setting by setting: (Species: RAT, Strain/Sex: STRAIN CD/FEMALE, Route: INTRAPERITONEAL, Dose: 0, 10 UMOL IN DMSO 3/WK FOR 4 WK (TOTAL DOSE; 16 UMOL/RAT) (STUDY DURATION; 78 WK), Dose: 0, 10 UMOL IN DMSO 3/WK FOR 4 WK (TOTAL DOSE; 16 UMOL/RAT) (STUDY DURATION; 78 WK), Tumor Site: Type of Lesion: HEMATOPOIETIC SYSTEM: HISTIOCYTOMA) “active; positive”; (Species: RAT, Strain/Sex: STRAIN-CD/FEMALE, Route: SUBCUTANEOUS, Dose: 0, 6.3 UMOL (TOTAL DOSE) ADMINISTERED OVER 8 WK BEGINNING ON DAY OF BIRTH (STUDY DURATION: 67 WK), Tumor Site: Type of Lesion: INTEGUMENTARY SYSTEM: MALIGNANT FIBROUS HISTIOCYTOMA, HEMATOPOIETIC SYSTEM: LEUKEMIA) “active; positive”.
Consider `O=P([O-])([O-])[O-].O=P([O-])([O-])[O-].[Pb+2].[Pb+2].[Pb+2]`, for which the carcinogen call runs as follows: (Species: RAT, Strain/Sex: ALBINO, Route: SUBCUTANEOUS, Dose: 20 MG 1/WK FOR UP TO 16 MO (TOTAL DOSE 40-760 MG/RAT), Tumor Site: Type of Lesion: KIDNEY: ADENOMA, PAPILLOMA, CYSTADENOMA, CARCINOMA) “active; positive”; (Species: RAT, Strain/Sex: STRAIN-CB/MALE, Route: SUBCUTANEOUS/INTRAPERITONEAL, Dose: TOTAL DOSES 29, 145, 450 MG, Dose: TOTAL DOSES 29, 145, 450 MG, Tumor Site: Type of Lesion: KIDNEY: ADENOMA, ADENOCARCINOMA) “active; positive”.
Turning to `Cn1c(=O)c2c(ncn2C)n(C)c1=O` (tested in a mixture with another compound), the carcinogen call reads like this: (Species: MOUSE, Strain/Sex: B6C3F1/FEMALE, Route: ORAL, Dose: 0, 0.7, 1.4% OF DIET FOR 78 WK (STUDY DURATION: 94 WK), Dose: 0, 0.7, 1.4% OF DIET FOR 78 WK (STUDY DURATION: 94 WK)) “inactive; negative”; (Species: MOUSE, Strain/Sex: B6C3F1/MALE, Route: ORAL, Dose: 0, 0.7, 1.4% OF DIET FOR 78 WK (STUDY DURATION: 94 WK), Dose: 0, 0.7, 1.4% OF DIET FOR 78 WK (STUDY DURATION: 94 WK)) “inactive; negative”; (Species: RAT, Strain/Sex: F344/FEMALE, Route: ORAL, Dose: 0, 0.7, 1.4% OF DIET FOR 78 WK (STUDY DURATION: 113 WK), Dose: 0, 0.7, 1.4% OF DIET FOR 78 WK (STUDY DURATION: 113 WK), Tumor Site: Type of Lesion: BLADDER: TRANSITIONAL CELL CARCINOMA, KIDNEY: TUBULAR CELL ADENOCARCINOMA, TRANSITIONAL CELL PAPILLOMA) “equivocal”; (Species: RAT, Strain/Sex: F344/MALE, Route: ORAL, Dose: 0, 0.7, 1.4% OF DIET FOR 78 WK (STUDY DURATION: 113 WK), Dose: 0, 0.7, 1.4% OF DIET FOR 78 WK (STUDY DURATION: 113 WK)) “inactive; negative”.
In the case of `CCCCCCCC/C=C/CCCCCCCC(=O)OCCOCC(OCCO)C1OCC(OCCO)C1OCCO` (centres undefined), the carcinogen call is “inactive; negative” (Species: MOUSE, Strain/Sex: B6C3F1/FEMALE, Route: ORAL, Dose: 0, 25000, 50000 PPM IN FEED 7 D/WK FOR 103 WK (STUDY DURATION: 103 WK), Dose: 0, 25000, 50000 PPM IN FEED 7 D/WK FOR 103 WK (STUDY DURATION: 103 WK)); “inactive; negative” (Species: MOUSE, Strain/Sex: B6C3F1/MALE, Route: ORAL, Dose: 0, 25000, 50000 PPM IN FEED 7 D/WK FOR 103 WK (STUDY DURATION: 103 WK), Dose: 0, 25000, 50000 PPM IN FEED 7 D/WK FOR 103 WK (STUDY DURATION: 103 WK)); “inactive; negative” (Species: RAT, Strain/Sex: F344/FEMALE, Route: ORAL, Dose: 0, 25000, 50000 PPM IN FEED 7 D/WK FOR 103 WK (STUDY DURATION: 103 WK), Dose: 0, 25000, 50000 PPM IN FEED 7 D/WK FOR 103 WK (STUDY DURATION: 103 WK)); “equivocal” (Species: RAT, Strain/Sex: F344/MALE, Route: ORAL, Dose: 0, 25000, 50000 PPM IN FEED 7 D/WK FOR 103 WK (STUDY DURATION: 103 WK), Dose: 0, 25000, 50000 PPM IN FEED 7 D/WK FOR 103 WK (STUDY DURATION: 103 WK), Tumor Site: Type of Lesion: ADRENAL MEDULLA: PHEOCHROMOCYTOMA).
For the molecule `CN(C)c1ccc(C(=N)c2ccc(N(C)C)cc2)cc1`, the carcinogen call by setting is: (Species: HUMAN, Route: ORAL, INHALATION, DERMAL, Tumor Site: Type of Lesion: URINARY BLADDER) “active; positive”; (Species: MOUSE, Route: ORAL, Tumor Site: Type of Lesion: LIVER, LYMPHATIC SYSTEM: LYMPHOMA) “active; positive”; (Species: RAT, Route: ORAL, Tumor Site: Type of Lesion: LIVER) “active; positive”; (Species: RAT, Route: SUBCUTANEOUS, Tumor Site: Type of Lesion: INJECTION SITE) “active; positive”.
As to `Nc1ncc([N+](=O)[O-])s1`, the carcinogen call is “inactive; negative” (Species: MOUSE, Strain/Sex: B6C3F1/FEMALE, Route: ORAL, Dose: 0, 50, 100 PPM IN DIET, Dose: 0, 50, 100 PPM IN DIET); “inactive; negative” (Species: MOUSE, Strain/Sex: B6C3F1/MALE, Route: ORAL, Dose: 0, 50, 100 PPM IN DIET, Dose: 0, 50, 100 PPM IN DIET); “inactive; negative” under setting [1].

For the origin of these results see PubChem BioAssay AID1259411 (Chemical Carcinogenesis Research Information System (CCRIS), 2018).
